How the values were obtained:
Experiment in all cases: Quantitative competitive binding assay (KINOMEscan)
MAP3K15 = biological target: T1, MAP3K15 (Homo sapiens, UniProt Q6ZN16); conditions: for remaining binding at 0.05 µM: read-out: Percent control (50 nM); for remaining binding at 0.2 µM: read-out: Percent control (200 nM); for remaining binding at 1 µM: read-out: Percent control (1000 nM); for remaining binding at 10 µM: read-out: Percent control (10 μM)
T1 construct: purchased KINOMEscan (DiscoveRx), San Diego, CA
T1 sequence (Q6ZN16 1-1313): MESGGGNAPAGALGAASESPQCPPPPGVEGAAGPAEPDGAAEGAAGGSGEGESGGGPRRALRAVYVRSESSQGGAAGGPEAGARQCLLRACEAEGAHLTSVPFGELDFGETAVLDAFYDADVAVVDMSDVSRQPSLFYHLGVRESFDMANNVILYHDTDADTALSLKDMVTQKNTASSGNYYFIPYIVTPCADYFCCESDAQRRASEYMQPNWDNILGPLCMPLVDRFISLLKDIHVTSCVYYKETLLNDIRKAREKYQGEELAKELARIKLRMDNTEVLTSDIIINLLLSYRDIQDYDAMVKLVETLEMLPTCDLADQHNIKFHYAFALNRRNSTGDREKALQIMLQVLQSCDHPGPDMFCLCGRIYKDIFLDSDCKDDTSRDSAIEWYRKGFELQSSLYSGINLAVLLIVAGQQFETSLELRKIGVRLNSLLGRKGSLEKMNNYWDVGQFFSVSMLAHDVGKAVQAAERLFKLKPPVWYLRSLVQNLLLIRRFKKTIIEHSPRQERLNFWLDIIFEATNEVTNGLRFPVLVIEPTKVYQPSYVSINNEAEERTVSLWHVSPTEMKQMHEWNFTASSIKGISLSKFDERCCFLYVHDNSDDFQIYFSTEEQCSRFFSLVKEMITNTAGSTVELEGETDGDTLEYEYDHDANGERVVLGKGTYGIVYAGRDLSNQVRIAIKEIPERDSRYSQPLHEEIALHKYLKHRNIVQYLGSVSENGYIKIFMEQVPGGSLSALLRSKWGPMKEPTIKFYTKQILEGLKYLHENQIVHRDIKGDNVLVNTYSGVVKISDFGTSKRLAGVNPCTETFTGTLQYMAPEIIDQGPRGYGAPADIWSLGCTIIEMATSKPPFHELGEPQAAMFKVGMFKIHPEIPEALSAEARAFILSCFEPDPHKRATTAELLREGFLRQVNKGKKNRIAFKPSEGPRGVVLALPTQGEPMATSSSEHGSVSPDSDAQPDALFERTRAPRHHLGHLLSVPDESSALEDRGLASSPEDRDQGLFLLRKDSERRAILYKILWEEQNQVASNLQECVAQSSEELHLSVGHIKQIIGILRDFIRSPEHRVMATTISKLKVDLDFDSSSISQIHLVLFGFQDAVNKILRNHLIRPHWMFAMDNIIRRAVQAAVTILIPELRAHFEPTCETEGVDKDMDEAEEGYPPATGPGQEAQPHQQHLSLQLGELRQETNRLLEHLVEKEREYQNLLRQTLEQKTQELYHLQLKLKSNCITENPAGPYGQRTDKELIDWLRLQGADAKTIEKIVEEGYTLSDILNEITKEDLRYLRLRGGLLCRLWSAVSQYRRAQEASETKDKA

SRMS = SRMS (Homo sapiens, UniProt Q9H3Y6); conditions: for IC50: estimated Kd, averaged pointwise estimates, transformed Hill equation, read-out: Calculated estimate of IC50; for remaining binding at 0.05 µM: read-out: Percent control (50 nM); for remaining binding at 0.2 µM: read-out: Percent control (200 nM); for remaining binding at 1 µM: read-out: Percent control (1000 nM); for remaining binding at 10 µM: read-out: Percent control (10 μM)
DLK (MAP3K12) = biological target: T2, DLK (MAP3K12) (Homo sapiens, UniProt Q12852); conditions: for remaining binding at 0.05 µM: read-out: Percent control (50 nM); for remaining binding at 0.2 µM: read-out: Percent control (200 nM); for remaining binding at 1 µM: read-out: Percent control (1000 nM); for remaining binding at 10 µM: read-out: Percent control (10 μM)
T2 construct: purchased KINOMEscan (DiscoveRx), San Diego, CA

TAOK1 = biological target: T3, TAOK1 (Homo sapiens, UniProt Q7L7X3); conditions: for remaining binding at 0.2 µM: read-out: Percent control (200 nM); for remaining binding at 1 µM: read-out: Percent control (1000 nM); for remaining binding at 10 µM: read-out: Percent control (10 μM)
T3 construct: purchased KINOMEscan (DiscoveRx), San Diego, CA
T3 sequence (Q7L7X3 1-1001): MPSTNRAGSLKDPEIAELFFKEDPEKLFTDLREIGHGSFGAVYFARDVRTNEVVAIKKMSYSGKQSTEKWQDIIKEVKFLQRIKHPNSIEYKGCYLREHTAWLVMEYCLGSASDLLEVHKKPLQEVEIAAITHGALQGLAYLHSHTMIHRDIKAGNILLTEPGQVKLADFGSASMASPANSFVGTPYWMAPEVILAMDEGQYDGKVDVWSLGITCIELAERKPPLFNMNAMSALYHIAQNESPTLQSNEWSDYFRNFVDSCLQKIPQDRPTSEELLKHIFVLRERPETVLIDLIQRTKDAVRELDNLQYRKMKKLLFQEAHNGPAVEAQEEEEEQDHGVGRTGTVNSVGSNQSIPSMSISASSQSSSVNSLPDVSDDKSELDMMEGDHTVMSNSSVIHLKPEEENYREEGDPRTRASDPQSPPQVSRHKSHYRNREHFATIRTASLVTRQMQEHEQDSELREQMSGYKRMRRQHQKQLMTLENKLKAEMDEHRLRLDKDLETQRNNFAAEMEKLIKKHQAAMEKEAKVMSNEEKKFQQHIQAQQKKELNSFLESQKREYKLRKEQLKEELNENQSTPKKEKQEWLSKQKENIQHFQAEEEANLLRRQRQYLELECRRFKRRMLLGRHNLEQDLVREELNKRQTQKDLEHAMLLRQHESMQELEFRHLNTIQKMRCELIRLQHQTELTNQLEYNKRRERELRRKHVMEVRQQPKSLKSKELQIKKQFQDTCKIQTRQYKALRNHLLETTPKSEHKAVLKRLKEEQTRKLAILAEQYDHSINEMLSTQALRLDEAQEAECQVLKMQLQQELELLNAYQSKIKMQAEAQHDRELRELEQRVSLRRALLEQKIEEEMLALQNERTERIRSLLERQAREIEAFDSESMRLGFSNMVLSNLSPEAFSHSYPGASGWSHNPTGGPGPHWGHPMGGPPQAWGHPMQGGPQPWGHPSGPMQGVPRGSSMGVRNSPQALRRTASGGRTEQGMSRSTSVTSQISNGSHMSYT

MEK6 (MAP2K6) = biological target: T4, MEK6 (MAP2K6) (Homo sapiens, UniProt P52564); conditions: for remaining binding at 0.05 µM: read-out: Percent control (50 nM); for remaining binding at 0.2 µM: read-out: Percent control (200 nM); for remaining binding at 1 µM: read-out: Percent control (1000 nM); for remaining binding at 10 µM: read-out: Percent control (10 μM)
T4 construct: purchased KINOMEscan (DiscoveRx), San Diego, CA

PAK1 = biological target: T5, PAK1 (Homo sapiens, UniProt Q13153); conditions: for remaining binding at 0.05 µM: read-out: Percent control (50 nM); for remaining binding at 0.2 µM: read-out: Percent control (200 nM); for remaining binding at 1 µM: read-out: Percent control (1000 nM); for remaining binding at 10 µM: read-out: Percent control (10 μM)
T5 construct: purchased KINOMEscan (DiscoveRx), San Diego, CA

ZAK = biological target: T6, ZAK (Homo sapiens, UniProt Q9NYL2); conditions: for remaining binding at 0.05 µM: read-out: Percent control (50 nM); for remaining binding at 0.2 µM: read-out: Percent control (200 nM); for remaining binding at 1 µM: read-out: Percent control (1000 nM); for remaining binding at 10 µM: read-out: Percent control (10 μM)
T6 construct: purchased KINOMEscan (DiscoveRx), San Diego, CA

[1] = estimated Kd, averaged pointwise estimates, transformed Hill equation, read-out: Calculated estimate of IC50

Sequence of SRMS (Q9H3Y6 whole entry): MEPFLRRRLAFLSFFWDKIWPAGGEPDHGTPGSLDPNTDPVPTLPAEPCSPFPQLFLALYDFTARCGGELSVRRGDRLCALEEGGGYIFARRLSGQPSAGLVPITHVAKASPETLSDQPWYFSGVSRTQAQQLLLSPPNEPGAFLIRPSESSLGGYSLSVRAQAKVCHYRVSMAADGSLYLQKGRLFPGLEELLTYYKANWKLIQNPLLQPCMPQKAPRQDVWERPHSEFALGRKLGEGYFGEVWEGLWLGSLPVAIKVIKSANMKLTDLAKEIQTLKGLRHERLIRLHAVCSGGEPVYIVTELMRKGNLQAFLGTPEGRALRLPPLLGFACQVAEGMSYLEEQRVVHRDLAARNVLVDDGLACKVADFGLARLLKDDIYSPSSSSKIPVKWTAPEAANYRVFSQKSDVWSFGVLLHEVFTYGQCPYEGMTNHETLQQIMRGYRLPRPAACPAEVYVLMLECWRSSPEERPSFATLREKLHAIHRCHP
T5 sequence (Q13153 whole entry): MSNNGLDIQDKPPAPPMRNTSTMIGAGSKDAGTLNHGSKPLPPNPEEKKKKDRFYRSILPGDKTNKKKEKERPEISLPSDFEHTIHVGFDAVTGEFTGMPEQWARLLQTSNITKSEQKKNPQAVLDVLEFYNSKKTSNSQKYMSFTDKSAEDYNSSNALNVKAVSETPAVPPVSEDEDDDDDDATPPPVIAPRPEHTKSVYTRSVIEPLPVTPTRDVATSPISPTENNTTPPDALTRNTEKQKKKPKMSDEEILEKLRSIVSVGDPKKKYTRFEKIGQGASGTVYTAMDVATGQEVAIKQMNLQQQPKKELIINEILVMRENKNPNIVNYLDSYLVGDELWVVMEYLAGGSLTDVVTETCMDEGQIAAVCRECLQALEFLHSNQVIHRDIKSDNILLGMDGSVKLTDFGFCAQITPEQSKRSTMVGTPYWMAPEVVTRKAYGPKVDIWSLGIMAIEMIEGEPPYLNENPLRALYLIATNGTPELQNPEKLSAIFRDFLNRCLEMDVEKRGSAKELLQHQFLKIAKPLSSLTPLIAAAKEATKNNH
T6 sequence (Q9NYL2 whole entry): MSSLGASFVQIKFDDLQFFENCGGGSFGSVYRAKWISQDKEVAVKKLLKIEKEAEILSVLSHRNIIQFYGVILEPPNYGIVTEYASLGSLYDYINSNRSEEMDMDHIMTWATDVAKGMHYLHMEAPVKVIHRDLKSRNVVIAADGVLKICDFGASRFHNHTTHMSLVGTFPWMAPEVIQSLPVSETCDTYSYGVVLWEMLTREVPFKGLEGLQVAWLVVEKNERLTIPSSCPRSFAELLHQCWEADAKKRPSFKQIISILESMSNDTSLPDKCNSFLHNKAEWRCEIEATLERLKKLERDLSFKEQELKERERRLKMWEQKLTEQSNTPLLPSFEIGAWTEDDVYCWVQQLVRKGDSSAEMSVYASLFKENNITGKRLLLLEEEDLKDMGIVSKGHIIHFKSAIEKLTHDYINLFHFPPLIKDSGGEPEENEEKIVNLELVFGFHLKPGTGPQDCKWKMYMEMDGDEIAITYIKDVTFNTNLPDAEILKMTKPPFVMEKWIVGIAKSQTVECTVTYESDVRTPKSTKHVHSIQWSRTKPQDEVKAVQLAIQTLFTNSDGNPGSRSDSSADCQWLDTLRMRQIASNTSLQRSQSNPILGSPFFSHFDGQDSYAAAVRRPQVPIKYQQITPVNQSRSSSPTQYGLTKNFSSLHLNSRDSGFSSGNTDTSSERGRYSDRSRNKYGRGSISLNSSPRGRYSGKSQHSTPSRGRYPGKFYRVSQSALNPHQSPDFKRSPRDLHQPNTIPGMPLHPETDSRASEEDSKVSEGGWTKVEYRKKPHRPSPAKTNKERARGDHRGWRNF
T2 sequence (Q12852 whole entry): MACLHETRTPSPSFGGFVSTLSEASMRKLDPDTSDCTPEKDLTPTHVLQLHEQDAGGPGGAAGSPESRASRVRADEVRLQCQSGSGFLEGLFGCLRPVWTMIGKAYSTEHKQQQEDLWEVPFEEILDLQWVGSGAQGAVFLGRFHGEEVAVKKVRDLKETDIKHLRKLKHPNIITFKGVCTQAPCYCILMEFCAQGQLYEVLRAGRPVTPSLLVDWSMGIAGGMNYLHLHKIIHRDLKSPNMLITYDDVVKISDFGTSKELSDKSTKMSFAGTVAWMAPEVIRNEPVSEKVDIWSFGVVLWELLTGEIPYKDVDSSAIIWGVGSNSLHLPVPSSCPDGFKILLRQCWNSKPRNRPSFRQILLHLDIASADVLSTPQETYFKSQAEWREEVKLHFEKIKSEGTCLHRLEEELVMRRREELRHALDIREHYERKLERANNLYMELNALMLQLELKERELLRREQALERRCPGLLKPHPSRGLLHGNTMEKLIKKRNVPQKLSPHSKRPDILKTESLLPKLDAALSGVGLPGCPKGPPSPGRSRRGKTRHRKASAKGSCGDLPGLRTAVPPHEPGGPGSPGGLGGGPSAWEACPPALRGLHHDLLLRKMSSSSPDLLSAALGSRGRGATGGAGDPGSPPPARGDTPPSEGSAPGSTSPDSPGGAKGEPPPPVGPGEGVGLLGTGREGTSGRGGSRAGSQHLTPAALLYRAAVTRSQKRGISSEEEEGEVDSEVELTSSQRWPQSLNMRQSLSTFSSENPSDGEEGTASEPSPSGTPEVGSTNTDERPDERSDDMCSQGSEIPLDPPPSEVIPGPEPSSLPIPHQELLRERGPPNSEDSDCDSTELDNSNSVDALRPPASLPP
T4 sequence (P52564 whole entry): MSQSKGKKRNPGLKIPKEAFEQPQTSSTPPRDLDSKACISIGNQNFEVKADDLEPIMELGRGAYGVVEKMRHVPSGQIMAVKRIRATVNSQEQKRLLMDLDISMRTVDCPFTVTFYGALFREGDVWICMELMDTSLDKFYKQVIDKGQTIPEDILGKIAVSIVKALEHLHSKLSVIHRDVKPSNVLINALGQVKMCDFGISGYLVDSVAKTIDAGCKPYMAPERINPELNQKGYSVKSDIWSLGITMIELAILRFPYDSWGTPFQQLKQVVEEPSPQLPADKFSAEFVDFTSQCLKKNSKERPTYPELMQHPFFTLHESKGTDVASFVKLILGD

Compound | remaining binding at 0.05 µM (MAP3K15) | remaining binding at 0.2 µM (MAP3K15) | remaining binding at 1 µM (MAP3K15) | remaining binding at 10 µM (MAP3K15) | IC50 (SRMS) | remaining binding at 0.05 µM (SRMS) | remaining binding at 0.2 µM (SRMS) | remaining binding at 1 µM (SRMS) | remaining binding at 10 µM (SRMS) | remaining binding at 0.05 µM (DLK (MAP3K12)) | remaining binding at 0.2 µM (DLK (MAP3K12)) | remaining binding at 1 µM (DLK (MAP3K12)) | remaining binding at 10 µM (DLK (MAP3K12)) | remaining binding at 0.2 µM (TAOK1) | remaining binding at 1 µM (TAOK1) | remaining binding at 10 µM (TAOK1) | remaining binding at 0.05 µM (MEK6 (MAP2K6)) | remaining binding at 0.2 µM (MEK6 (MAP2K6)) | remaining binding at 1 µM (MEK6 (MAP2K6)) | remaining binding at 10 µM (MEK6 (MAP2K6)) | other results
CCCS(=O)(=O)Nc1ccc(F)c(C(=O)c2c[nH]c3ncc(Cl)cc23)c1F [PLX4720] | 94% | 97% | 91% | 59% | 0.00064 µM | 1.9% | 0.55% | 0.05% | 0% | 95% | 98% | 100% | 92% | 94% | 89% | 65% | 82% | 100% | 100% | 47% | IC50 (TAOK1; [1]): 7.53 µM; remaining binding at 0.05 µM (TAOK1; read-out: Percent control (50 nM)): 87%; remaining binding at 0.05 µM (PAK1): 93%; remaining binding at 0.2 µM (PAK1): 97%; remaining binding at 1 µM (PAK1): 83%; remaining binding at 10 µM (PAK1): 22%; remaining binding at 0.05 µM (ZAK): 20%; remaining binding at 0.2 µM (ZAK): 4%; remaining binding at 1 µM (ZAK): 0.7%; remaining binding at 10 µM (ZAK): 0.1%
CCCS(=O)(=O)Nc1ccc(F)c(C(=O)c2c[nH]c3ncc(-c4ccc(Cl)cc4)cc23)c1F [vemurafenib] | 84% | 100% | 84% | 91% | 0.0111 µM | 24% | 9.6% | 0.75% | 0% | 98% | 97% | 66% | 92% | 100% | 97% | 79% | 91% | 97% | 87% | 21% | IC50 (MEK6 (MAP2K6); [1]): 4.08 µM; remaining binding at 0.05 µM (PAK1): 99%; remaining binding at 0.2 µM (PAK1): 98%; remaining binding at 1 µM (PAK1): 91%; remaining binding at 10 µM (PAK1): 46%; IC50 (ZAK; [1]): < 0.05 µM; remaining binding at 0.05 µM (ZAK): 9%; remaining binding at 0.2 µM (ZAK): 1.8%; remaining binding at 1 µM (ZAK): 0.25%; remaining binding at 10 µM (ZAK): 0.05%

Reference: article PMC3814616, “BRAF inhibitors suppress apoptosis through off-target inhibition of JNK signaling” (eLife, 2013)
